Assay results as given in patent US9249129B2, “Morpholino substituted urea derivatives as mTOR inhibitors” (CELLZOME LIMITED, priority 2010, dated 2016).

How the values were obtained:
Test in all cases: kinobeads assay with mass spectrometry detection of kinases (kinase selectivity profile)
Assay type in all cases: binding
kinases (kinome) [1] = target: T1, kinases (kinome) (Homo sapiens, UniProt Q99759); conditions: MAP3K3 (STE), IPI00181703
T1 construct: determined in kinobeads assays with mass spectrometry detection of kinases as described previously; endogenous in cells; host or cells: cell lysate
T1 sequence (Q99759 whole entry): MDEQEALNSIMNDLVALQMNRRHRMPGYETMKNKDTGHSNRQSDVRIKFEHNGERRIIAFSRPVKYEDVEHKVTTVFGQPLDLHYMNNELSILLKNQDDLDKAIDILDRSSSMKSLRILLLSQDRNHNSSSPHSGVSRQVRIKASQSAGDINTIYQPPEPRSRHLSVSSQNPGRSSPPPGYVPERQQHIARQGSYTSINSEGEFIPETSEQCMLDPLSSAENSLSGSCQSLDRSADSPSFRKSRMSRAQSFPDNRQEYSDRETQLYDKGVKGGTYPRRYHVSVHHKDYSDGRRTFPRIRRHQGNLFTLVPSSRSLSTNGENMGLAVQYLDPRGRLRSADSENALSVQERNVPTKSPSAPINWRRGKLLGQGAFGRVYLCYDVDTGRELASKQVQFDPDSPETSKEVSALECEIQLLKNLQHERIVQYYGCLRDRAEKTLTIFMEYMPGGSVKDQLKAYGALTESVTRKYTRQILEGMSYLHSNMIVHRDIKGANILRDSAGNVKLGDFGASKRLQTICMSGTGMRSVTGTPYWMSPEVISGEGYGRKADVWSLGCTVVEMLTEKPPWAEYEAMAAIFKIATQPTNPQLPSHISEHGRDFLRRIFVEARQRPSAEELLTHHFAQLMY
From the text: (§1) The protein kinase complement of the human genome (the kinome) was described previously (Manning et al., 2002. Science 298(5600):1912-1934). Sequence accession numbers are defined by the International Protein Index (IPI) (Kersey et al., 2004. Proteomics 4(7):1985-1988).

kinases (kinome) [2] = target: T2, kinases (kinome) (Homo sapiens, UniProt Q9H2G2); conditions: SLK (STE), IPI00022827
T2 construct: determined in kinobeads assays with mass spectrometry detection of kinases as described previously; endogenous in cells; host or cells: cell lysate
From the text: as §1

kinases (kinome) [3] = target: T3, kinases (kinome) (Homo sapiens, UniProt P51812); conditions: RSK2 (AGC), IPI00020898
T3 construct: determined in kinobeads assays with mass spectrometry detection of kinases as described previously; endogenous in cells; host or cells: cell lysate
T3 sequence (P51812 whole entry): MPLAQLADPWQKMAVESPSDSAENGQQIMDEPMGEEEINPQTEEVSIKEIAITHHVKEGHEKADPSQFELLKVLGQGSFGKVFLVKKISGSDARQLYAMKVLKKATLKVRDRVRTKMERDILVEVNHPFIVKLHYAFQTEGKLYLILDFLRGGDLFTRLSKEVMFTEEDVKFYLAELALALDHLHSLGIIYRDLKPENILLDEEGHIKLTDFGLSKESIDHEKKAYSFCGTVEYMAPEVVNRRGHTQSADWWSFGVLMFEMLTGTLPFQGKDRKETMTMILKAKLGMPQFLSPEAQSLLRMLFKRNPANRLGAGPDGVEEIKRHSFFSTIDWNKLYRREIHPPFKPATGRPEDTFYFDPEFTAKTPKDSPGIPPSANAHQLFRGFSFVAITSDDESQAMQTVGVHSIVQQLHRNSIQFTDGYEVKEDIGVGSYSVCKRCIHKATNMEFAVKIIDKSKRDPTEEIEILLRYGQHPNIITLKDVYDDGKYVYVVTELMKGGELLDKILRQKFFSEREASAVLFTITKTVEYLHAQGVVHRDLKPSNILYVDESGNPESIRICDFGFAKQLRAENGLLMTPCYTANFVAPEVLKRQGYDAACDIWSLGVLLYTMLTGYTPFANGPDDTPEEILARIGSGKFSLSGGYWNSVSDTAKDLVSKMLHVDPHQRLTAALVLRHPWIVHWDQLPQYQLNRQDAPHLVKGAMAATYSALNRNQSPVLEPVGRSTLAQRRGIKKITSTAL
From the text: as §1

kinases (kinome) [4] = target: T4, kinases (kinome) (Homo sapiens, UniProt Q9BZL6); conditions: PKD2 (CAMK), IPI00009334
T4 construct: determined in kinobeads assays with mass spectrometry detection of kinases as described previously; endogenous in cells; host or cells: cell lysate
T4 sequence (Q9BZL6 whole entry): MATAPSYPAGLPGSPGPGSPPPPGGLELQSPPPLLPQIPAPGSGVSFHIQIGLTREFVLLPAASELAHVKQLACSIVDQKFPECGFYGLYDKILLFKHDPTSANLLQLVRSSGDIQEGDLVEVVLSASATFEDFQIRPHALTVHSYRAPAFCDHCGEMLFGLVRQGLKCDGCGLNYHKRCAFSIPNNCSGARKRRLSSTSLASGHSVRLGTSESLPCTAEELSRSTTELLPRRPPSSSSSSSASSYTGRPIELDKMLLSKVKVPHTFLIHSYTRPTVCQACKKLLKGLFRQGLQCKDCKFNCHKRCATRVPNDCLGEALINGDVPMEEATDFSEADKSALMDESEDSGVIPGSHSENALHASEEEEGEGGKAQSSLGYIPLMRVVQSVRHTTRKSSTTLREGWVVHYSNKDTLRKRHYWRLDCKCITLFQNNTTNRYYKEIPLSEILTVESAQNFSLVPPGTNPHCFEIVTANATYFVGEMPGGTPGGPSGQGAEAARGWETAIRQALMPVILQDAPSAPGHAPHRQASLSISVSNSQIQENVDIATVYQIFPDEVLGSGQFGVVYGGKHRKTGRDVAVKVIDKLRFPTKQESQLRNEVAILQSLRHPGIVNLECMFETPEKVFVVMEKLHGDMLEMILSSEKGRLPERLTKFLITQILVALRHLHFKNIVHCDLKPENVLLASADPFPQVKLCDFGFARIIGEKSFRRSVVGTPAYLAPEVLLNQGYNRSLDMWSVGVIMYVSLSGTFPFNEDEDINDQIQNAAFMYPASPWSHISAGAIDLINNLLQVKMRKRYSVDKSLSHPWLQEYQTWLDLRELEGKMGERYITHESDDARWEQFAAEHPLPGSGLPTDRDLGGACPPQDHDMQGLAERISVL
From the text: as §1

kinases (kinome) [5] = target: T5, kinases (kinome) (Homo sapiens, UniProt Q13627); conditions: DYRK1A (CMGC), IPI00014344
T5 construct: determined in kinobeads assays with mass spectrometry detection of kinases as described previously; endogenous in cells; host or cells: cell lysate
From the text: as §1

kinases (kinome) [6] = target: T6, kinases (kinome) (Homo sapiens, UniProt P06213); conditions: INSR (TK), IPI00025803
T6 construct: determined in kinobeads assays with mass spectrometry detection of kinases as described previously; endogenous in cells; host or cells: cell lysate
T6 sequence (P06213 28-1382): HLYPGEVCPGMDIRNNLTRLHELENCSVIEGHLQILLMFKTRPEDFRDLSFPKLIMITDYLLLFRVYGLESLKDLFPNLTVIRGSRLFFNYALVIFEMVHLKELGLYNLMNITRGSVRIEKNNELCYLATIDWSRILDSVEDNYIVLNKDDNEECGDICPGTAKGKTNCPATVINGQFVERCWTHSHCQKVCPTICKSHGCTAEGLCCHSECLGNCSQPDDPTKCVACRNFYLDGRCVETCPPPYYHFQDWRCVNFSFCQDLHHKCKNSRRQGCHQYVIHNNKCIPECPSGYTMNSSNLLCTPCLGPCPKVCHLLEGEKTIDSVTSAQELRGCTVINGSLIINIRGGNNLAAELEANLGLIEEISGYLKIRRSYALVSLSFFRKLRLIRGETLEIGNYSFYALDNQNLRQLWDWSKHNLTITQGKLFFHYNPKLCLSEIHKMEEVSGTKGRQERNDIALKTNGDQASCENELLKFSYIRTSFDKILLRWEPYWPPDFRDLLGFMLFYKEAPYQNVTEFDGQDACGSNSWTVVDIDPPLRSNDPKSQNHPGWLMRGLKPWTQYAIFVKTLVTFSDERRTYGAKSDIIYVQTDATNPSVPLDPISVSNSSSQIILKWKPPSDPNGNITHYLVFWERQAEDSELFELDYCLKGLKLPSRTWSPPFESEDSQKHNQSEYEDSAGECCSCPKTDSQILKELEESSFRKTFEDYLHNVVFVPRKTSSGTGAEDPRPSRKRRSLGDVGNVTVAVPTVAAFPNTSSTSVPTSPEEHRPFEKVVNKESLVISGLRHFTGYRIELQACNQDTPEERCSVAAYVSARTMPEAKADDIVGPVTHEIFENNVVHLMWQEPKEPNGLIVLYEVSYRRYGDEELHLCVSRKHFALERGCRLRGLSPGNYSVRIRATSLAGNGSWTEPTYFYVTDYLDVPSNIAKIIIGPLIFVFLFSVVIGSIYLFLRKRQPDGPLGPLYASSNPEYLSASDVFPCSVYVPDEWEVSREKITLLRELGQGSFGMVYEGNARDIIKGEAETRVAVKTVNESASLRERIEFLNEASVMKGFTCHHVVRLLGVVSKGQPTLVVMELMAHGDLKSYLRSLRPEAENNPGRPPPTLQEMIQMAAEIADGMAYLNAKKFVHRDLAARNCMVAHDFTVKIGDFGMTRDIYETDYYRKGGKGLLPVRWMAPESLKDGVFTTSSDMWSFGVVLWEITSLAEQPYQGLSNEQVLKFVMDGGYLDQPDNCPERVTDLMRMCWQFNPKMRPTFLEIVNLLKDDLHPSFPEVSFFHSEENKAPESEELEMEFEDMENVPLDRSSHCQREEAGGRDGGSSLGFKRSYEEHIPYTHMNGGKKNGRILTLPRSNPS
From the text: as §1

kinases (kinome) [7] = target: T7, kinases (kinome) (Homo sapiens, UniProt P15735); conditions: PHKg2 (CAMK), IPI00012891
T7 construct: determined in kinobeads assays with mass spectrometry detection of kinases as described previously; endogenous in cells; host or cells: cell lysate
From the text: as §1

kinases (kinome) [8] = target: T8, kinases (kinome) (Homo sapiens, UniProt Q13164); conditions: Erk5 (CMGC), IPI00910923
T8 construct: determined in kinobeads assays with mass spectrometry detection of kinases as described previously; endogenous in cells; host or cells: cell lysate
From the text: as §1

kinases (kinome) [9] = target: T9, kinases (kinome) (Homo sapiens, UniProt Q9Y6M4); conditions: CK1g3 (CK1), IPI00218437
T9 construct: determined in kinobeads assays with mass spectrometry detection of kinases as described previously; endogenous in cells; host or cells: cell lysate
T9 sequence (Q9Y6M4 whole entry): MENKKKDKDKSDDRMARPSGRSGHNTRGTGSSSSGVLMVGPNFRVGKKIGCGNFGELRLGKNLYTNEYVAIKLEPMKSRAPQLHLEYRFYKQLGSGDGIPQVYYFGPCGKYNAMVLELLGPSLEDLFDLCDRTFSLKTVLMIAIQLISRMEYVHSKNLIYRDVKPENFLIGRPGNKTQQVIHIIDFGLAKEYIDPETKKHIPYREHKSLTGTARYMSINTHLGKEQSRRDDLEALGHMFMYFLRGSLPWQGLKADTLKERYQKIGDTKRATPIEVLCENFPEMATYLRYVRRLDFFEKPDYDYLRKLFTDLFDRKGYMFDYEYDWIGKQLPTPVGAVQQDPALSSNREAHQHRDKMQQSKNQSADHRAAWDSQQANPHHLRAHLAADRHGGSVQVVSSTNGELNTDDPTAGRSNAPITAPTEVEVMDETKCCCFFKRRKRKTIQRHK
From the text: as §1

kinases (kinome) [10] = target: T10, kinases (kinome) (Homo sapiens, UniProt Q16513); conditions: PKN2 (AGC), IPI00002804
T10 construct: determined in kinobeads assays with mass spectrometry detection of kinases as described previously; endogenous in cells; host or cells: cell lysate
T10 sequence (Q16513 whole entry): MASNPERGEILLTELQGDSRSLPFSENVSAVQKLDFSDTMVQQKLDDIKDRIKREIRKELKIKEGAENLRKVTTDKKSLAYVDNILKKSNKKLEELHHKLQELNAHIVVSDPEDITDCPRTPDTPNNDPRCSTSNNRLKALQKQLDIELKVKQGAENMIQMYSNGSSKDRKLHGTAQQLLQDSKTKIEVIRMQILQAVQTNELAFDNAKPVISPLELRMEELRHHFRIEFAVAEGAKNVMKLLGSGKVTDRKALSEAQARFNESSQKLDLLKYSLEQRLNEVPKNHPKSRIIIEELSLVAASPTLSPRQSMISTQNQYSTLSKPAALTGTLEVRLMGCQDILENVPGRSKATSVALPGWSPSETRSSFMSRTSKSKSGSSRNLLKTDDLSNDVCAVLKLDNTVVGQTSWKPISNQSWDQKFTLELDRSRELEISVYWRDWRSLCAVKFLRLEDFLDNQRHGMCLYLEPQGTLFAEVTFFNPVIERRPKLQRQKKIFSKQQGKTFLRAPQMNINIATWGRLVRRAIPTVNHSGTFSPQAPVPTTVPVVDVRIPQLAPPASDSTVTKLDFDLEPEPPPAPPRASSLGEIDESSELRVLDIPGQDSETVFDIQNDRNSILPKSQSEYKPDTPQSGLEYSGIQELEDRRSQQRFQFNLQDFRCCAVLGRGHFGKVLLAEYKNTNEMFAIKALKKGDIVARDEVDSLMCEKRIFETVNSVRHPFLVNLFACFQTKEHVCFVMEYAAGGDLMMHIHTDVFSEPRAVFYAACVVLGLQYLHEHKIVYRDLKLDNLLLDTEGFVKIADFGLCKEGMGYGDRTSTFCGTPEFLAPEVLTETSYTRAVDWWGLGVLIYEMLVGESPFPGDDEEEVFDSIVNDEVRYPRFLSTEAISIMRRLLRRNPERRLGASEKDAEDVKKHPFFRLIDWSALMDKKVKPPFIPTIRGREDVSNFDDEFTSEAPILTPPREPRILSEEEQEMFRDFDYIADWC
From the text: as §1

kinases (kinome) [11] = target: T11, kinases (kinome) (Homo sapiens, UniProt O60674); conditions: JAK2 (TK), IPI00031016
T11 construct: determined in kinobeads assays with mass spectrometry detection of kinases as described previously; endogenous in cells; host or cells: cell lysate
From the text: as §1

kinases (kinome) [12] = target: T12, kinases (kinome) (Homo sapiens, UniProt P78368); conditions: CK1g2 (CK1), IPI00297767
T12 construct: determined in kinobeads assays with mass spectrometry detection of kinases as described previously; endogenous in cells; host or cells: cell lysate
From the text: as §1

kinases (kinome) [13] = target: T13, kinases (kinome) (Homo sapiens, UniProt Q9UQM7); conditions: CaMK2a (CAMK), IPI00550056
T13 construct: determined in kinobeads assays with mass spectrometry detection of kinases as described previously; endogenous in cells; host or cells: cell lysate
From the text: as §1

kinases (kinome) [14] = target: T14, kinases (kinome) (Homo sapiens, UniProt Q8N752); conditions: CK1a2 (CK1), IPI00167096
T14 construct: determined in kinobeads assays with mass spectrometry detection of kinases as described previously; endogenous in cells; host or cells: cell lysate
From the text: as §1

kinases (kinome) [15] = target: T15, kinases (kinome) (Homo sapiens, UniProt P48426); conditions: PIP5K2A (Lipid Kinase), IPI00009688
T15 construct: determined in kinobeads assays with mass spectrometry detection of kinases as described previously; endogenous in cells; host or cells: cell lysate
From the text: as §1

kinases (kinome) [16] = target: T16, kinases (kinome) (Homo sapiens, UniProt Q13873); conditions: BMPR2 (TKL), IPI00783156
T16 construct: determined in kinobeads assays with mass spectrometry detection of kinases as described previously; endogenous in cells; host or cells: cell lysate
From the text: as §1

kinases (kinome) [17] = target: T17, kinases (kinome) (Homo sapiens, UniProt Q86TW2); conditions: ADCK1 (Atypical), IPI00787836
T17 construct: determined in kinobeads assays with mass spectrometry detection of kinases as described previously; endogenous in cells; host or cells: cell lysate
From the text: as §1

Measured: IC50

C[C@H]1COCCN1c1nc(-c2ccc(NC(=O)N[C@H]3CCC[C@@H]3O)cc2)cc(-c2cc(F)ccc2S(C)(=O)=O)n1 [Example 76, 1-(4-(6-(5-fluoro-2-(methylsulfonyl)phenyl)-2-((S)-3-methylmorpholino)pyrimidin-4-yl)phenyl)-3-((1S,2S)-2-hydroxycyclopentyl)urea]
> 10 µM: kinases (kinome) [1]

C[C@H]1COCCN1c1nc(-c2ccc(NC(=O)NC3CC3)cc2)cc(-c2ccccc2S(C)(=O)=O)n1 [Example 4, (S)-1-cyclopropyl-3-(4-(2-(3-methylmorpholino)-6-(2-(methylsulfonyl)phenyl)pyrimidin-4-yl)phenyl)urea]
> 10 µM: kinases (kinome) [2] | kinases (kinome) [3] | kinases (kinome) [4] | kinases (kinome) [5] | kinases (kinome) [6] | kinases (kinome) [7] | kinases (kinome) [8] | kinases (kinome) [9]

C[C@H]1COCCN1c1cc(-c2ccccn2)nc(-c2ccc(NC(=O)NCCO)cc2)n1 [Example 43, (S)-1-(2-hydroxyethyl)-3-(4-(4-(3-methylmorpholino)-6-(pyridin-2-yl)pyrimidin-2-yl)phenyl)urea]
> 10 µM: kinases (kinome) [10]

C[C@H]1COCCN1c1nc(-c2ccc(NC(=O)NC3CC3)cc2)cc(-c2cccnc2S(C)(=O)=O)n1 [Example 46, (S)-1-cyclopropyl-3-(4-(2-(3-methylmorpholino)-6-(2-(methylsulfonyl)pyridin-3-yl)pyrimidin-4-yl)phenyl)urea]
> 10 µM: kinases (kinome) [11] | kinases (kinome) [12]

CCNC(=O)Nc1ccc(-c2cc(-c3ccccc3C#N)nc(N3CCOC[C@@H]3C)n2)cc1 [Example 8, (S)-1-(4-(6-(2-cyanophenyl)-2-(3-methylmorpholino)pyrimidin-4-yl)phenyl)-3-ethylurea]
> 10 µM: kinases (kinome) [13] | kinases (kinome) [9]

C[C@H]1COCCN1c1nc(-c2ccc(NC(=O)NC3CC3)cc2)cc(-c2cc(F)ccc2S(C)(=O)=O)n1 [Example 40, (S)-1-cyclopropyl-3-(4-(6-(5-fluoro-2-(methylsulfonyl)phenyl)-2-(3-methylmorpholino)pyrimidin-4-yl)phenyl)urea]
not listed: kinases (kinome) [2] | kinases (kinome) [5] | kinases (kinome) [8] | kinases (kinome) [9] | kinases (kinome) [12] | kinases (kinome) [13]
> 10 µM: all other assays above
